Test results published in patent US20250230138A1, “COMPOUNDS HAVING A T-STRUCTURE FORMED BY AT LEAST FOUR CYCLES FOR USE IN THE TREATMENT OF CANCER AND OTHER INDICATIONS” (TheRas, Inc., priority 2022, published 2025).
Where two headings read alike, the source gives them in different places.

Columns and labels:
[1] = molecular target: Cys242 in human PIK3CA (157-299) (Homo sapiens (Human), UniProt P42336); experiment: Covalent modification assay using MALDI-TOF MS; type: biochemical; settings: 4 h reaction time point
Sequence of Cys242 in human PIK3CA (157-299) (P42336 157-299): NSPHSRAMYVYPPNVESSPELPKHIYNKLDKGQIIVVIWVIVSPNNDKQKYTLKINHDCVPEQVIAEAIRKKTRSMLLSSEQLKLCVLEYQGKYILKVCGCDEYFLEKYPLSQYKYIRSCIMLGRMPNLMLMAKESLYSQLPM
Procedure, shortened: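 Covalent adduct formation was read by linear-mode MALDI-TOF with sinapinic acid matrix, reported as modified-protein peak height divided by total protein peak heights. Reactions held PIK3CA (157-299) at 1 or 3.33 μM in HEPES/NaCl/MgCl2 buffer, pH 7.3, sampled after 15 min to 4 h at room temperature.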

pAKT in BT474 cells = experiment: Cell-based pAKT HTRF assay in BT474 cells; settings: BT474 cells, 4 hr incubation, read-out: pAKT inhibition IC50 in BT474 cells
Procedure, shortened: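 Cells grown in DMEM with 10% FBS were exposed to compounds for 4 hr in 0.25% DMSO, using a 9-point, 3-fold dilution series that starts at 3 μM. Lysates were incubated with d2 and Eu Cryptate antibodies for 4–24 h at room temperature, and HTRF was read at 615 nm emission.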

[2] = 1 μM protein target, 1:5 protein to compound ratio (compounds 853-1279)
[3] = 3.33 μM protein target, 1:7.5 protein to compound ratio (compounds 1-852)
[4] = Homo sapiens, BT-474, Compounds 10-999

Row | SMILES | % of modification [1, 2] | IC50 (pAKT in BT474 cells; Compounds 1000-1279) [nM] | % of modification [1, 3] | IC50 (pAKT in BT474 cells; Compounds 10-999) [nM] | IC50 (pAKT in BT474 cells; [4]) [nM]
1 | C=CC(=O)N1CCn2nc(-c3nc(-c4ccc5c(c4)CNC(=O)C54CC4)c4ccsc4c3-c3c(F)cc(F)cc3OCCOC)cc2C1C (centres unmarked) [Compound 1083] | A (percent of modification of PIK3CA protein ≥75%) | < 100 | – | – | –
2 | C=CC(=O)N1CCn2nc(-c3nc(-c4cnc5c(c4)CN(CCOC)CC5(F)F)c4ccsc4c3-c3c(F)cc(F)cc3OCCOC)cc2C1C (centres unmarked) [Compound 1242] | A (percent of modification of PIK3CA protein ≥75%) | < 100 | – | – | –
3 | C=CC(=O)N1CC(n2cc(-c3nc(-c4ccc5c(c4)CNC(=O)C5)c4ccsc4c3-c3ccc[nH]c3=O)cn2)C1 [Compound 91] | – | – | D (percent of modification <25%) | > 3000 | –
4 | C=CC(=O)N1CCn2nc(-c3nc(-c4ccc5c(c4)CNC5=O)c4ccsc4c3-c3c(F)cc(F)cc3OCCOC)cc2[C@H]1C [Compound 617, 5-((S)-6-((R)-5-acryloyl-4-methyl-4,5,6,7-tetrahydropyrazolo[1,5-a]pyrazin-2-yl)-7-(2,4-difluoro-6-(2-methoxyethoxy)phenyl)thieno[3,2-c]pyridin-4-yl)isoindolin-1-one] | – | – | A (percent of modification of PIK3CA protein ≥75%) | < 100 | –
5 | C=CC(=O)N1Cc2cc(-c3nc(-c4ccc5c(c4)CCN(C)C5)c4ccsc4c3-c3c(F)cc(F)cc3OCCO)nn2[C@@H](C)C1 [Compound 565] | – | – | A (percent of modification of PIK3CA protein ≥75%) | < 100 | –
6 | CC#CC(=O)N1CC(n2cc(-c3nc(-c4ccc5c(c4)CCNC5)c4ccsc4c3-c3ccc(F)cc3OC)cn2)C1 [Compound 113] | – | – | D (percent of modification <25%) | > 3000 | –
7 | C=CC(=O)N1Cc2cc(-c3nc(-c4ccc5c(=O)n(C)ncc5c4)c4ccsc4c3-c3c(F)cc(F)cc3OCCOC)nn2C[C@H]1C [Compound 849] | – | – | A (percent of modification of PIK3CA protein ≥75%) | < 100 | –
8 | C=CC(=O)N1Cc2cc(-c3nc(-c4ccc5c(c4)ncn5C)c4ccsc4c3-c3c(F)cc(F)cc3OCCOC)nn2C[C@H]1C [Compound 669] | – | – | A (percent of modification of PIK3CA protein ≥75%) | < 100 | –
9 | C=CC(=O)N1CCn2nc(-c3nc(-c4ccc5c(c4)CNC5=O)c4ccsc4c3-c3c(F)cc(F)cc3OC[C@@H](C)O)cc2[C@H]1C [Compound 762] | – | – | A (percent of modification of PIK3CA protein ≥75%) | < 100 | –
10 | C=CC(=O)N1CCc2ncc(-c3nc(-c4ccc5c(c4)CCN(C)CC5)c4ccsc4c3-c3c(F)cc(F)cc3OCCOC)cc2C1 [Compound 1085] | A (percent of modification of PIK3CA protein ≥75%) | < 100 | – | – | –
11 | C=CC(=O)N1CCc2nc(-c3nc(-c4ccc5c(c4)CNC5)c4ccsc4c3-c3ccc(F)cc3OCCOC)sc2C1 [Compound 153] | – | – | A (percent of modification of PIK3CA protein ≥75%) | < 100 | –
12 | C=CC(=O)N1CCn2nc(-c3nc(-c4ccc([C@H](N(C)C)C(F)(F)F)cc4)c4ccsc4c3-c3c(F)cc(F)cc3OCCOC)cc2[C@H]1C (single isomer, unassigned) [Compound 1150] | A (percent of modification of PIK3CA protein ≥75%) | 100 to 1000 | – | – | –
13 | C=CC(=O)N1CCn2nc(-c3nc(-c4ccc5c(c4)CNC5=O)c4ccsc4c3-c3ccc(F)cc3OC(C)C)cc2C1 [Compound 287] | – | – | A (percent of modification of PIK3CA protein ≥75%) | < 100 | –
14 | C=CC(=O)N1CCn2nc(-c3nc(-c4ccc5c(c4)CCNC5=O)c4ccsc4c3-c3c(F)cc(F)cc3OC)cc2C1C (centres unmarked) [Compound 1120] | A (percent of modification of PIK3CA protein ≥75%) | < 100 | – | – | –
15 | C=C(F)C(=O)N1CCn2nc(-c3nc(-c4cnc5c(c4)CN(C)CC5)c4ccsc4c3-c3c(F)cc(F)cc3OC(C)C)cc2C1 [Compound 340] | – | – | B (50%<percent of modification <75%) | < 100 | –
16 | C=CC(=O)N1CCn2nc(-c3nc(-c4cnn(C)c4)c4ccsc4c3-c3ccc(F)cc3OCCOC)cc2C1 [Compound 194, 1-[2-[7-[4-fluoro-2-(2-methoxyethoxy)phenyl]-4-(1-methylpyrazol-4-yl)thieno[3,2-c]pyridin-6-yl]-6,7-dihydro-4H-pyrazolo[1,5-a]pyrazin-5-yl]prop-2-en-1-one] | – | – | A (percent of modification of PIK3CA protein ≥75%) | – | < 100

Row | SMILES | % of modification [1, 2] | IC50 (pAKT in BT474 cells; Compounds 1000-1279) [nM] | % of modification [1, 3] | IC50 (pAKT in BT474 cells; Compounds 10-999) [nM] | IC50 (pAKT in BT474 cells; [4]) [nM]
17 | C=CC(=O)N1CCn2nc(-c3nc(-c4ccc5nn(C)cc5c4)c4ccsc4c3-c3c(F)cc(F)cc3OCC(C)(C)O)cc2[C@H]1C [Compound 1129] | A (percent of modification of PIK3CA protein ≥75%) | < 100 | – | – | –
18 | C=CC(=O)N1CCn2nc(-c3nc(-c4ccn5cncc5c4)c4ccsc4c3-c3c(F)cc(F)cc3OCCOC)cc2C1C (centres unmarked) [Compound 1074] | A (percent of modification of PIK3CA protein ≥75%) | < 100 | – | – | –
19 | C=CC(=O)N1CC(n2cc(-c3nc(-c4ccc5c(c4)CCNC5)c4ncsc4c3-c3ccc(F)cc3OC)cn2)C1 [Compound 104, 1-[3-[4-[7-(4-fluoro-2-methoxy-phenyl)-4-(1,2,3,4-tetrahydroisoquinolin-6-yl)thiazolo[4,5-c]pyridin-6-yl]pyrazol-1-yl]azetidin-1-yl]prop-2-en-1-one] | – | – | A (percent of modification of PIK3CA protein ≥75%) | – | 100 to 1000
20 | C=CC(=O)N1CCn2nc(-c3nc(-c4ccc5c(c4)CNC5=O)c4c(c3-c3c(F)cc(F)cc3OCCOC)CCC4)cc2[C@H]1C [Compound 1174, 5-((R)-3-((R)-5-acryloyl-4-methyl-4,5,6,7-tetrahydropyrazolo[1,5-a]pyrazin-2-yl)-4-(2,4-difluoro-6-(2-methoxyethoxy)phenyl)-6,7-dihydro-5H-cyclopenta[c]pyridin-1-yl)isoindolin-1-one] | A (percent of modification of PIK3CA protein ≥75%) | < 100 | – | – | –
21 | C=CC(=O)N1CC(n2cc(-c3nc(-c4cnn(CCO)c4)c4ccsc4c3-c3ccc(F)cc3OCCOC)cn2)C1 [Compound 233] | – | – | A (percent of modification of PIK3CA protein ≥75%) | < 100 | –
22 | C=CC(=O)N1CCn2nc(-c3nc(-c4ccn5ncnc5c4)c4ccsc4c3-c3c(F)cc(F)cc3OCCOC)cc2C1C (centres unmarked) [Compound 985] | A (percent of modification of PIK3CA protein ≥75%) | – | – | < 100 | –
23 | C=CC(=O)N1CCc2nc(-c3nc(-c4ccc5c(c4)CCN(C)C5)c4ccsc4c3-c3c(F)cc(F)cc3OC(C)C)sc2C1 (single isomer, unassigned) [Compound 448] | – | – | A (percent of modification of PIK3CA protein ≥75%) | < 100 | –
24 | C=CC(=O)N1CCn2nc(-c3nc(-c4ccc5c(c4)CCC5N(C)C)c4ccsc4c3-c3c(F)cc(F)cc3OCCOC)cc2C1C (centres unmarked) [Compound 1182] | A (percent of modification of PIK3CA protein ≥75%) | < 100 | – | – | –
25 | C=CC(=O)N1CCn2nc(-c3nc(-c4cnn(C5CN(C)C5)c4)c4ccsc4c3-c3c(F)cc(F)cc3OCC(C)O)cc2C1C (centres unmarked) [Compound 992] | A (percent of modification of PIK3CA protein ≥75%) | – | – | < 100 | –
26 | C=CC(=O)N1CCn2nc(-c3nc(-c4ccc(=O)n(C)c4)c4ccsc4c3-c3ccc(F)cc3OC(C)C)cc2C1 [Compound 201] | – | – | A (percent of modification of PIK3CA protein ≥75%) | < 100 | –
27 | C=CC(=O)N1CCc2nc(-c3nc(N4CCCC(N(C)C)C4)c4ccsc4c3-c3ccc(F)cc3OCCOC)sc2C1 (centres unmarked) [Compound 159] | – | – | B (50%<percent of modification <75%) | 100 to 1000 | –
28 | C=CC(=O)N1CCn2nc(-c3nc(-c4cnn(C)c4)c4ccsc4c3-c3ccc(F)cc3OCC)cc2C1 [Compound 275] | – | – | A (percent of modification of PIK3CA protein ≥75%) | < 100 | –
29 | C=CC(=O)N1CCn2nc(-c3nc(-c4cnn(C)c4)c4ccsc4c3-c3ccc(F)cc3OC(F)F)cc2C1 [Compound 224] | – | – | A (percent of modification of PIK3CA protein ≥75%) | < 100 | –
30 | C=CC(=O)N1CCn2nc(-c3nc(-c4ccc5c(cnn5C)c4)c4ccsc4c3-c3c(F)cc(F)cc3OCCO)cc2[C@H]1C [Compound 652] | – | – | C (25%≤percent of modification <50%) | < 100 | –
31 | C=CC(=O)N1CCC(n2cc(-c3nc(-c4ccc5c(c4)CCNC5)c4ccsc4c3-c3ccc(F)cc3C#N)cn2)CC1 [Compound 93] | – | – | C (25%≤percent of modification <50%) | > 3000 | –
